# How the values were obtained:
# [1] = solubility in water (product description); assay type: physicochemical; conditions: qualitative
# [2] = acute toxicity determination; conditions: mouse, in vivo, ip; Rockland mice 18-22 g, intraperitoneal, observed for 7 days; read-out: LD50 (50% of animals died)
# [3] = test system: eyelid ptosis caused by reserpine; experiment: eyelid ptosis test (antagonism of reserpine, anti-depressant activity); assay type: in vivo, rats; conditions: 1 h before reserpine 1 mg/kg i.p., read 4 h after reserpine, percent of controls receiving reserpine only
# Experimental: The anti-depressant activity was determined by the eyelid ptosis test codified by Rubin, J. Pharm. Exp. Ther. Vol. 120 (1957), p. 125. […] The eyelid ptosis test is used as a quantitative evaluation of the animal's condition but the antagonism is equally exerted on all the neuro-depressive symptoms of reserpine: immobility, […], hypothermia,myosis, etc. […] The results of Table I are expressed as percent of ptosis compared to the controls receiving reserpine only.
Structure (SMILES),solubility in water [1],LD50 at 168 h [2],% of ptosis ([3]; 2 mg/kg i.p.),% of ptosis ([3]; 5 mg/kg i.p.),% of ptosis ([3]; 10 mg/kg i.p.),% of ptosis ([3]; 20 mg/kg i.p.),% of ptosis ([3]; 1 mg/kg i.p.)
"CN(C)CCC1=Cc2ccccc2N(C)c2cc(Cl)ccc21 [7-chloro-5-methyl-10-(β-dimethylaminoethyl)-dibenzo (b,f) azepine]",insoluble in water,,,,,,
"CN(C)CCC1=Cc2ccccc2N(C)c2ccccc21 [5-methyl-10-(β-dimethylaminoethyl)-dibenzo (b,f) azepine]",insoluble in water,~50 mg/kg,100%,59%,37%,30%,
"CNCCC1=Cc2ccccc2N(C)c2ccccc21.Cl [5-methyl-10(β-monomethylaminoethyl)-dibenzo (b,f) azepine hydrochloride]",insoluble in ether and water,~75 mg/kg,72%,50%,33%,11%,100%
"CNCCC1=Cc2ccccc2N(C)c2cc(Cl)ccc21 [fumarate of 7-chloro-5-methyl-10-(β-monomethylaminoethyl)-dibenzo (b,f) azepine]",slightly soluble in water,,,,,,
"CN(C)CCC1=Cc2ccccc2N(C)c2ccc(Cl)cc21 [8-chloro-5-methyl-10-(β-dimethylaminoethyl)-dibenzo(b,f)azepine]",insoluble in water,,,,,,

# Reference: US3979515A, “Novel dibenzo(b,f)azepines as thymoanaleptics” (Roussel-UCLAF, priority 1969, dated 1976)
